According to patent US20250332397A1, “SYSTEMS AND METHODS FOR MICRONEEDLE THERAPEUTIC DELIVERY WITH ACOUSTIC SIGNALS” (THE TRUSTEES OF INDIANA UNIVERSITY, priority 2021, published 2025):

Legend:
[1] = Ex vivo delivery in mice skin tissues (dye released, absorbance); type: in vitro ADME, BALB/c mice; details: FIG. 10; 1 Mhz, duty cycle 15%, 4.2 w/cm^2; 30 s, 60 s, 180 s
Description: The prepared RhB dye (or epinephrine) loaded acoustic patches (or passive patches) were inserted into the fresh hair removed skin tissues harvested from BALB/c mice, and removed from the mice skin tissues. The acoustic path treatment condition (frequency, 1 Mhz; duty cycle, 15%; energy density, 4.2 w/cm^2) was applied to three mouse skin tissues, while there was not acoustic stimulation for passive patch treatments. The mouse skin tissues after acoustic patch and passive treatments with three different treatment time (e.g., 30 s, 60 s, or 180 s) were analyzed.

[2] = acoustic patch mediated delivery, mouse "B"

Description for anaphylactic mouse model: Olbumin from chicken egg white (OVA) was used as antigen to induce anaphylaxis, where OVA dosage could regulate the degree of anaphylaxis. Specifically, an OVA solution as an adjuvant was prepared in 1 mg/mL of OVA with 1 μg/mL of Pertussis toxin and 10 mg/mL of aluminum potassium sulfate in 0.9% saline. To sensitize mice, BALB/c mice were injected intraperitoneally with 100 μL of the adjuvant OVA solution. After 3 weeks, these actively sensitize mice were challenged with 10 mg/mL of the adjuvant OVA solution. To trigger the anaphylactic reaction, a 50 μL of 10 mg/mL OVA solution in 0.9% saline was injected intraperitoneally into a mouse. The whole anaphylactic process lasted for about 120 mins, and all the mice were sacrificed after the experimental procedures.
The mice during anaphylaxis were characterized via physiological parameters and symptoms including rectal temperature, movement score, respiratory rate, or blood histamine level. Rectal temperature was measured using a rectal probe for mice in every 2 min in real-time. Respiratory rate was measured through counting the breaths during every 20 seconds through observing the thoracic movement. Movement score was tested by rules as follows: (1) react actively after provoking; (2) slow in response after provoking; (3) no active response after provoking; (4) died. Blood histamine level was measured by testing whole blood samples through tail vein through an ELISA kit (Catalog No: IT6088, vendors). Samples were all restored in −80° C. refrigerator for later assessment of the concentration of histamine by an ELISA kit.
Mice were sensitized via intraperitoneal injection of chicken ovalbumin (OVA) and aluminum potassium sulfate adjuvant and triggered an acute allergic reaction by injecting OVA as an allergen after three weeks. […] We measured the core temperature and respiratory rate of the sensitized mice during the induction of anaphylaxis.

dye released into mouse skin over different delivery times, with acoustics vs without acoustics [1]	Structure (SMILES)	allergic symptoms of mouse experiencing severe anaphylaxis (anaphylactic mouse model; [2])	body temperature of mouse experiencing severe anaphylaxis (anaphylactic mouse model; [2])	symptoms of anaphylaxis (hypothermia, reduced activity, opisthotonos) (anaphylactic mouse model; after intramuscular injection)
	CNC[C@H](O)c1ccc(O)c(O)c1 [epinephrine]	relief from allergic symptoms	immediate body temperature increase	obtained relief from these symptoms
increased delivery	CCN(CC)c1ccc2c(-c3ccc(S(=O)(=O)O)cc3S(=O)(=O)[O-])c3ccc(=[N+](CC)CC)cc-3oc2c1 [RhB dye, sulforhodamine B]			
